PMC9200625, “Identification and Functional Characterization of Peptides With Antimicrobial Activity From the Syphilis Spirochete, Treponema pallidum” (Frontiers in Microbiology, 2022)
Like-named read-outs stand apart in the source and are kept apart here. Bridge positions count the residues as written; N and C are the ends. Ends that are not written are not given here. Peptide text beside a SMILES is read from it.

How the values were obtained:
[1] = tested on: E. coli ATCC 9723H; assay type: cell-based
Protocol: (§1) Bacterial strains used in this study were: E. coli ATCC 9723H, Pseudomonas aeruginosa ATCC 10148, Staphylococcus aureus ATCC 6538P (penicillin resistant), Streptococcus pyogenes (hospital isolate, strain unknown), Mycobacterium smegmatis MC^2155, N. gonorrhoeae ATCC 700825 (streptomycin resistant), and Salmonella enterica subsp. enterica serovar Typhimurium SL1344 (streptomycin resistant). E. coli, P. aeruginosa, S. aureus, M. smegmatis, and S. enterica were cultured aerobically at 37°C in Mueller Hinton broth (MHB) (Sigma-Aldrich, MO, United States) and on nonselective Mueller Hinton agar (MHA) plates. S. pyogenes was cultured in 5% carbon dioxide at 37°C in MHB supplemented with 5% lysed horse blood (Quad Five, MT, United States) (MHB + 5% HB) and on nonselective MHA plates supplemented with 5% defibrinated sheep blood (Quad Five, MT, United States) (MHA + 5% SB). N. gonorrhoeae was cultured in 5% carbon dioxide at 37°C in gonococcal (GC) chocolate broth medium and on nonselective GC agar plates [GC medium base (BD Difco, MD, United States) supplemented with 1% BBL™ hemoglobin (BD Biosciences, MD, United States) and 1% IsoVitaleX (BD Biosciences, MD, United States)]. Prior to antimicrobial susceptibility assays (as described below), N. gonorrhoeae cultures were subcultured on nonselective GC agar plates (as described above), to ensure bacterial viability. All bacterial stocks were stored in 20% glycerol at –80°C.
(§2) Bacterial suspensions were prepared by transferring bacterial colonies into MHB and resuspending using a vortex mixer to ensure complete suspension of any bacterial aggregates. Turbidity of the colony suspensions was adjusted spectrophotometrically to the required optical densities to achieve a turbidity equivalent to that of a 0.5 McFarland standard (1–2 × 10^8 CFU/mL) followed by dilution in MHB to achieve the standardized microbial inoculum of approximately 5 × 10^5 CFU/mL. Total viable counts (TVC) were routinely performed on all inoculum suspensions to ensure correct bacterial cell densities. The standardized bacterial suspensions were then incubated with two-fold serial dilutions of each peptide (dissolved in 11 μL of ultrapure sterile water; final peptide concentration range of 256 μg/mL–0.5 μg/mL) in Greiner polypropylene round bottom 96-well microtiter plates (Sigma-Aldrich, MO, United States). Each peptide was tested once per experiment, with a range of 3–9 independent experiments performed per peptide. Negative growth/sterility control wells contained bacterial growth media (100 μL) and the peptide solvent (11 μL of ultrapure sterile water). Positive growth control wells contained the standardized number of bacterial cells (100 μL of ∼ 5.0 × 10^5 CFU/mL) and peptide solvent (11 μL of ultrapure sterile water). Plates were incubated at 37°C for 16–24 h and MICs were determined using the unaided eye to identify the lowest concentration of AMP that inhibited visible growth of the tested bacterial species. If the sterility control well was turbid, the test was not considered valid. MBCs were determined by plating the entire content of the wells containing the peptide/bacteria mixture representing the MIC and the entire contents of the preceding wells containing two-fold and four-fold more concentrated AMP dilutions onto nonselective agar plates.

[2] = tested on: P. aeruginosa ATCC 10148; assay type: cell-based, Pseudomonas aeruginosa
Protocol: as §1, §2

[3] = tested on: S. enterica SL1344; assay type: cell-based, Salmonella enterica subsp. enterica serovar Typhimurium
Protocol: as §1
(§3) Bacterial suspensions were prepared by transferring bacterial colonies into MHB and resuspending using a vortex mixer to ensure complete suspension of any bacterial aggregates. Turbidity of the colony suspensions was adjusted spectrophotometrically to the required optical densities to achieve a turbidity equivalent to that of a 0.5 McFarland standard (1–2 × 10^8 CFU/mL) followed by dilution in MHB to achieve the standardized microbial inoculum of approximately 5 × 10^5 CFU/mL. Total viable counts (TVC) were routinely performed on all inoculum suspensions to ensure correct bacterial cell densities. […] Plates were incubated at 37°C for 16–24 h and MICs were determined using the unaided eye to identify the lowest concentration of AMP that inhibited visible growth of the tested bacterial species. […] MBCs were determined by plating the entire content of the wells containing the peptide/bacteria mixture representing the MIC and the entire contents of the preceding wells containing two-fold and four-fold more concentrated AMP dilutions onto nonselective agar plates.

[4] = tested on: S. aureus ATCC 6538P; assay type: cell-based, Staphylococcus aureus
Protocol: as §1, §3

[5] = tested on: S. pyogenes Unknown strain; Clinical Isolate; assay type: cell-based, Streptococcus pyogenes; settings: for MIC: broth microdilution, cultured in MHB + 5% lysed horse blood, 5% carbon dioxide, ~5 × 10^5 CFU/mL, peptide 256–0.5 μg/mL, 37°C 16–24 h, visible growth
Protocol: as §1, §2

[6] = tested on: M. smegmatis MC^2155; assay type: cell-based, Mycobacterium smegmatis
Protocol: as §1, §2

[7] = tested on: N. gonorrhoeae ATCC 700825; assay type: cell-based, Neisseria gonorrhoeae
Protocol: as §1
The potential antimicrobial activity of the T. pallidum peptides against N. gonorrhoeae was determined using a modified agar dilution method. In this assay, N. gonorrhoeae colonies from GC chocolate agar plates were resuspended in MHB and the turbidity of the suspension was adjusted, as described above, to achieve the standardized microbial inoculum of approximately 5 × 10^5 CFU/mL. A two-fold serial dilution of the peptides (11 μL in sterile ultrapure water) was then prepared in wells 1–10 of a 96-well sterile polypropylene plate to obtain a dilution series corresponding to 10 times the required testing concentrations (2,560, 1,280, 640, 320, 160, 80, 40, 20, 10, 5 μg/mL). The bacterial suspension (100 μL) was dispensed into the wells containing the peptides. A negative growth/sterility control (well 12) contained bacterial growth media (100 μL) and the peptide solvent (11 μL of ultrapure sterile water). A positive growth control (well 11) contained the standardized number of bacterial cells (100 μL of ∼ 5.0 × 10^5 CFU/mL) and peptide solvent (11 μL of ultrapure sterile water). The 96-well plate was then incubated at 37°C in an atmosphere of 5% CO2 for 3 h to allow for peptide binding and antimicrobial activity. After the incubation period, an aliquot (20 μL) from wells 1–12 was removed and spotted onto the surface of a GC chocolate agar plate. N. gonorrhoeae spotted plates and TVC plates were incubated at 37°C in an atmosphere of 5% CO2 for 18–24 h. […] To determine the bactericidal activity of peptides, total viable counts (TVCs) were also prepared on GC chocolate agar plates for the 3 h-incubated peptide/bacteria mixtures. These counts were compared with TVCs from the corresponding positive growth wells to give the percentage of bacteria killed by each of the peptides following the 3-h incubation.

[8] = range over 3–9 independent experiments
[9] = wells at MIC, two-fold and four-fold higher plated on nonselective agar, 24 h 37°C, range over 3–9 independent experiments
[10] = broth microdilution in MHB, ~5 × 10^5 CFU/mL, peptide 256–0.5 μg/mL two-fold dilutions, 37°C 16–24 h, visible growth by unaided eye, range over 3–9 independent experiments

Compound | N. gonorrhoeae killing (%) ([7]; ATCC 700825, 3 h, 128 μg/mL) | N. gonorrhoeae killing (%) ([7]; ATCC 700825, 3 h, 256 μg/mL) | N. gonorrhoeae killing (%) ([7]; ATCC 700825, 3 h, 32 μg/mL) | N. gonorrhoeae killing (%) ([7]; ATCC 700825, 3 h, 64 μg/mL) | MIC [6, 10] | MBC [6, 9] | MIC [1, 10] | other results
CC[C@H](C)[C@H](NC(=O)[C@@H](NC(=O)[C@@H]1CCCN1C(=O)[C@H](Cc1ccccc1)NC(=O)[C@@H](N)Cc1ccccc1)[C@@H](C)CC)C(=O)N[C@@H](C)C(=O)N[C@@H](CCCNC(=N)N)C(=O)N[C@@H](CC(C)C)C(=O)N[C@@H](C)C(=O)N[C@@H](C)C(=O)N[C@@H](CCCCN)C(=O)N[C@H](C(=O)N[C@H](C(=O)N1CCC[C@H]1C(=O)N[C@@H](CO)C(=O)N[C@@H](CC(C)C)C(=O)N[C@H](C(=O)N[C@H]1CSSC[C@@H](C(=O)O)NC(=O)[C@H](CCCCN)NC(=O)[C@H](CCCCN)NC(=O)[C@H]([C@@H](C)O)NC(=O)[C@H](C(C)C)NC(=O)[C@H](C)NC1=O)C(C)C)[C@@H](C)CC)C(C)C [RaCa-2] (H-FFPIIARLAAKVIPSLVCAVTKKC-OH; disulfide 18-24; N-terminus and C-terminus assumed) |  |  |  |  |  |  |  | MIC ([1]; ATCC 9723): 3.1 to 12.4 µM; MBC ([1]; ATCC 9723, 24 h): 6.2 to 24.7 µM; MIC ([2]; ATCC 10148): 49.4 to 98.9 µM; MBC ([2]; ATCC 10148, 24 h): ≥98.9 µM; MIC ([3]; SL1344): 6.2 to 49.4 µM; MBC ([3]; SL1344, 24 h): 12.4 to 98.9 µM; MIC ([4]; ATCC 6538): 3.1 to 6.2 µM; MBC ([4]; ATCC 6538, 24 h): 3.1 to 12.4 µM; MBC ([5]; Unknown strain, Clinical Isolate, 24 h): 6.2 to 49.4 µM; MIC ([6]; MC^2155): 1.5 to 3.1 µM; MBC ([6]; MC^2155, 24 h): 1.5 to 6.2 µM
CC(C)C[C@H](NC(=O)[C@H](CCC(=O)O)NC(=O)[C@H](CC(N)=O)NC(=O)CNC(=O)[C@H](Cc1ccc(O)cc1)NC(=O)[C@H](CS)NC(=O)[C@H](Cc1c[nH]cn1)NC(=O)[C@H](CC(C)C)NC(=O)[C@H](CO)NC(=O)[C@H](CCCNC(=N)N)NC(=O)[C@H](Cc1c[nH]cn1)NC(=O)[C@H](Cc1ccc(O)cc1)NC(=O)CNC(=O)[C@@H](NC(=O)[C@H](CC(N)=O)NC(=O)[C@H](CS)NC(=O)[C@H](CC(N)=O)NC(=O)[C@H](CS)NC(=O)[C@H](Cc1c[nH]cn1)NC(=O)[C@H](CO)NC(=O)CNC(=O)[C@H](CS)NC(=O)CN)C(C)C)C(=O)N[C@@H](Cc1c[nH]cn1)C(=O)NCC(=O)N[C@@H](CCCCN)C(=O)N[C@@H](CCC(N)=O)C(=O)N[C@@H](CS)C(=O)NCC(=O)N[C@@H](Cc1ccccc1)C(=O)N[C@@H](CO)C(=O)N[C@@H](CCCNC(=N)N)C(=O)N[C@@H](CS)C(=O)NCC(=O)O [Tp0451a_N] (H-GCGSHCNCNVGYHRSLHCYGNELHGKQCGFSRCG-OH) | 0% | 0% |  |  |  |  |  | 
AMRIALWNRATHGEQGALQHLLAG [Tp0751_p5] | 0% | 0% | 0% | 0% |  |  |  | 
IGRARAITHTWGIWCRWGKVWRRS [Tp0451a_C] | 94.4–100% | 97.6–100% | 0–93.0% | 90.5–100% | 1.4 to 2.7 µM | 1.4 to 5.4 µM |  | MIC [5, 8]: 5.4 to 10.8 µM; MBC [5, 9]: 5.4 to 43.3 µM
IGRARAITHTWGIWSRWGKVWRRS [Tp0451a_C_C85S] | 0% | 0% | 0% | 0% | 5.4 µM | 10.9 µM | 10.9 to 21.8 µM | MBC [1, 9]: 10.9 to 43.6 µM; MIC [5, 8]: 5.4 to 10.9 µM; MBC [5, 9]: 10.9 to 43.6 µM
KGIVAERILKPCVRRKVNGKFRS [Tp0749_C] | 0% | 0% |  |  | 1.5 to 3.0 µM | 1.5 to 3.0 µM | 12.0 µM | MBC [1, 9]: 48.2 to 96.4 µM; MIC [2, 10]: 24.1 to 48.2 µM; MBC [2, 9]: 96.4 µM
KGIVAERILKPSVRRKVNGKFRS [Tp0749_C_C61S] | 0% | 0% |  |  | 12.1 to 24.2 µM | 24.2 to 48.5 µM | 24.2 to 48.5 µM | MIC [2, 10]: 97.0 µM
PFMQVITWARLYHKNQKRYEKIKK [Tp0749_N] | 0% | 0% |  |  | 0.3 to 1.3 µM | 1.3 µM |  | 
RSLEGTDRFPFVRLKNSRKLEFKDIKGIKREQFVKIL [sLL-37] |  |  |  |  |  |  |  | MIC ([2]; ATCC 10148): ≥57 µM; MIC ([6]; MC^2155): 14.2 to 28.5 µM; MBC ([6]; MC^2155, 24 h): ≥57 µM; N. gonorrhoeae killing (%) ([7]; peptide 32 μg/mL, 3-h incubation 37°C 5% CO2, TVCs versus positive growth control, all of three to six independent experiments): 0%; N. gonorrhoeae killing (%) ([7]; peptide 64 μg/mL, 3-h incubation 37°C 5% CO2, TVCs versus positive growth control, all of three to six independent experiments): 0%; N. gonorrhoeae killing (%) ([7]; peptide 128 μg/mL, 3-h incubation 37°C 5% CO2, TVCs versus positive growth control, all of three to six independent experiments): 0%; N. gonorrhoeae killing (%) ([7]; peptide 256 μg/mL, 3-h incubation 37°C 5% CO2, TVCs versus positive growth control, all of three to six independent experiments): 0%
